The term Dmax denotes the greatest extent of degradation seen. Low readings indicate shallow degradation, high ones deep degradation.

Common to all, as to assay type: cell-based
For one test, the target named is T1, Brd4 (Homo sapiens, UniProt O60885).
T1 construct: immunoblot analysis of Brd4 following 4 h treatment of HEK293 cells; endogenous in cells; host or cells: HEK293 (CRL-1573)
Put plainly: Immunoblot analysis of Brd4 in HEK293 cells (prodrug activity, negative SAR). Conditions: HEK293, 1 μM, 4 h, n=3. As to the method:
Immunoblotting. Proteins were separated by SDS-PAGE on NuPage 4-12% Bis-Tris gels, followed by transfer to Amersham Protran 0.45 NC nitrocellulose membrane (GE Healthcare) using wet transfer. Membranes were blocked using 5% w/v milk in Tris-buffered saline (TBS) with 0.1% Tween-20. Blots were probed (overnight at 4 °C) using anti-Brd2 (Abcam ab139690, 1:2,000 dilution), anti-Brd3 (Abcam ab50818, 1:500 dilution), and anti-Brd4 (Abcam ab128874, 1:1,000 dilution) primary antibodies, as appropriate. The next day, blots were washed with TBST and incubated (1 h at Room temperature) with anti-Tubulin hFAB-rhodamine (BioRad, 12004166) primary antibody, and either anti-rabbit IRDye 800CW (Licor 1:1,000 dilution) or anti-mouse IRDye 800CW (Licor 1:1,000 dilution) secondary antibody. Blots were developed using a Bio-Rad ChemiDoc MP Imaging System, and band quantification was performed using Image Studio software (LiCor). Band intensities were normalized to the tubulin loading control and reported as % of the average 0.1% DMSO vehicle intensity. Degradation data was plotted and analysed using Prism (Graphpad, version 8). […]
HEK293 (1×10^6) cells incubated with DMSO, 1 μM 11JQ15 or 1 μM 11JQ17 for 4 h with a final DMSO concentration of 0.1% v/v. […] Degradation data was plotted and analysed using Prism (Graphpad, version 8), where bars are mean±SEM of three independent experiments.
Background: Immunoblotting shows a protein as a band on a membrane.

The next test deals with HEK293 cells. Put plainly: Unbiased whole proteome analysis by TMT-labelling MS. Conditions: HEK293, 1 μM, 4 h, n=3. As to the method: HEK293 (2.2×10 6) cells were seeded in 10 cm plates (10 mL medium) overnight before treatment with 1 μM compound for a final DMSO concentration of 0.1% v/v. After 4 h incubation time, cells were washed with 2× with DPBS (Gibco) and lysed using 500 μL lysis buffer (100 mM Tris, 4% (w/v) SDS, pH 8.0) supplemented with cOmplete Mini EDTA-free protease inhibitor cocktail (Roche) and benzonase. Lysates were briefly sonicated (2×10 s), clarified by centrifugation (20000 g, 10 min, 4° C.) and the total protein content of the supernatant was quantified using a BCA assay (Thermo Fisher Scientific).
Sample processing, digestion, desalting, labelling, and fractionation were performed at Fingerprint Proteomics (University of Dundee) as described previously [Gadd et al. 10.1038/nchembio.2329]. FIG. 7 depicts fold change of abundance of 7882 proteins comparing 11JQ15 to DMSO treatment (left) and comparing 1 μM 11JQ17 to DMSO treatment (right), as well as their respective p-values (t-test; n=3).

The next test concerns the target T2, Brd4 (S) (Homo sapiens, UniProt O60885).
T2 construct: endogenous in cells; host or cells: HEK293 (CRL-1573), HeLa (CCL-2)
Description: Concentration-dependent BET degradation, immunoblot. Conditions: 4 h, 1 nM-10 μM. As to the method: (§1) Immunoblotting. Proteins were separated by SDS-PAGE on NuPage 4-12% Bis-Tris gels, followed by transfer to Amersham Protran 0.45 NC nitrocellulose membrane (GE Healthcare) using wet transfer. Membranes were blocked using 5% w/v milk in Tris-buffered saline (TBS) with 0.1% Tween-20. Blots were probed (overnight at 4 °C) using anti-Brd2 (Abcam ab139690, 1:2,000 dilution), anti-Brd3 (Abcam ab50818, 1:500 dilution), and anti-Brd4 (Abcam ab128874, 1:1,000 dilution) primary antibodies, as appropriate. The next day, blots were washed with TBST and incubated (1 h at Room temperature) with anti-Tubulin hFAB-rhodamine (BioRad, 12004166) primary antibody, and either anti-rabbit IRDye 800CW (Licor 1:1,000 dilution) or anti-mouse IRDye 800CW (Licor 1:1,000 dilution) secondary antibody. Blots were developed using a Bio-Rad ChemiDoc MP Imaging System, and band quantification was performed using Image Studio software (LiCor). Band intensities were normalized to the tubulin loading control and reported as % of the average 0.1% DMSO vehicle intensity. Degradation data was plotted and analysed using Prism (Graphpad, version 8).
(§2) HeLa (5×10^5) and HEK293 (1×10^6) cells were seeded in standard 6-well plates (2 mL medium) overnight before treatment with compounds at the desired concentration (1 nM-10 μM), with a final DMSO concentration of 0.1% v/v. After 4 h treatment time, cells were washed with DPBS (Gibco) and lysed using 85 μL RIPA buffer (Sigma-Aldrich) supplemented with cOmplete Mini EDTA-free protease inhibitor cocktail (Roche) and benzonase. Lysates were clarified by centrifugation (20000 g, 10 min, 4° C.) and the total protein content of the supernatant was quantified using a Bradford colorimetric assay. Samples were prepared using equal amounts of total protein and LDS sample buffer (Invitrogen). Band intensities were normalized to the tubulin loading control and reported as % of the average 0.1% DMSO vehicle intensity. Degradation data was plotted and analysed using Prism (Graphpad, version 8).
(§3) MZ1 and 11JQ17 were used at 1 μM for positive and negative controls, respectively. […] For the table, Dmax: +(Dmax≤25%); ++(26%≤Dmax≤50%); +++(51%≤Dmax≤70%); ++++(71%≤DC50: A (DC50≤50 nM); B (51 nM≤DC50≤500 nM); C (501 nM≤DC50).

In a further test the target is T3, Brd4 (L) (Homo sapiens, UniProt O60885).
T3 construct: endogenous in cells; host or cells: HEK293 (CRL-1573), HeLa (CCL-2)
The test is described as above. Conditions: 4 h, 1 nM-10 μM. The protocol: as §1, §2, §3

For a further test, the target named is Brd3 (Homo sapiens, UniProt Q15059). Described as above. The arrangement: endogenous in cells; host or cells: HEK293 (CRL-1573), HeLa (CCL-2). Conditions: 1 nM-10 μM. As to the method: as §1, §2, §3
Brd3, sequence (Q15059 whole entry): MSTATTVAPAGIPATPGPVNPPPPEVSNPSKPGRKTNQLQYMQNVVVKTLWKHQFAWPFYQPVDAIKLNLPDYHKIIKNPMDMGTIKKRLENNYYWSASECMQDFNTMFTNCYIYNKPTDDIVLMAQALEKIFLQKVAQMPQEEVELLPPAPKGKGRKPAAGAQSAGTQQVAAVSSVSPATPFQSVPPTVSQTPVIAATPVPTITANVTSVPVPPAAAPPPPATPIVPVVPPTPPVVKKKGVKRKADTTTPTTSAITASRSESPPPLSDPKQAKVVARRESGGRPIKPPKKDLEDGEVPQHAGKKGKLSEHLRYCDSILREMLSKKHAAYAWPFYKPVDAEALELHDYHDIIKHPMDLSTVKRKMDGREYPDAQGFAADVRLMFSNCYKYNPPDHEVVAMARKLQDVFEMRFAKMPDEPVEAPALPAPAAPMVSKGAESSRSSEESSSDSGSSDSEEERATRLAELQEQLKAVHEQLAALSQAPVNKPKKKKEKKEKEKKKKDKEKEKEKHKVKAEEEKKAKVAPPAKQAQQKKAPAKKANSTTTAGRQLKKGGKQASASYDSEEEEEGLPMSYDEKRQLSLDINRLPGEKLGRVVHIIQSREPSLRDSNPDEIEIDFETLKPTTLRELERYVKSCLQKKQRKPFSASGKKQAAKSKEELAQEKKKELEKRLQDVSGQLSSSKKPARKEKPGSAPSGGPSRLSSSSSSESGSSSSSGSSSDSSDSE
For another test, the target named is Brd2 (Homo sapiens, UniProt P25440). Described as above. Also noted: endogenous in cells; host or cells: HEK293 (CRL-1573), HeLa (CCL-2). Conditions: 1 nM-10 μM. The protocol: as §1, §2, §3
Brd2, sequence (P25440 whole entry): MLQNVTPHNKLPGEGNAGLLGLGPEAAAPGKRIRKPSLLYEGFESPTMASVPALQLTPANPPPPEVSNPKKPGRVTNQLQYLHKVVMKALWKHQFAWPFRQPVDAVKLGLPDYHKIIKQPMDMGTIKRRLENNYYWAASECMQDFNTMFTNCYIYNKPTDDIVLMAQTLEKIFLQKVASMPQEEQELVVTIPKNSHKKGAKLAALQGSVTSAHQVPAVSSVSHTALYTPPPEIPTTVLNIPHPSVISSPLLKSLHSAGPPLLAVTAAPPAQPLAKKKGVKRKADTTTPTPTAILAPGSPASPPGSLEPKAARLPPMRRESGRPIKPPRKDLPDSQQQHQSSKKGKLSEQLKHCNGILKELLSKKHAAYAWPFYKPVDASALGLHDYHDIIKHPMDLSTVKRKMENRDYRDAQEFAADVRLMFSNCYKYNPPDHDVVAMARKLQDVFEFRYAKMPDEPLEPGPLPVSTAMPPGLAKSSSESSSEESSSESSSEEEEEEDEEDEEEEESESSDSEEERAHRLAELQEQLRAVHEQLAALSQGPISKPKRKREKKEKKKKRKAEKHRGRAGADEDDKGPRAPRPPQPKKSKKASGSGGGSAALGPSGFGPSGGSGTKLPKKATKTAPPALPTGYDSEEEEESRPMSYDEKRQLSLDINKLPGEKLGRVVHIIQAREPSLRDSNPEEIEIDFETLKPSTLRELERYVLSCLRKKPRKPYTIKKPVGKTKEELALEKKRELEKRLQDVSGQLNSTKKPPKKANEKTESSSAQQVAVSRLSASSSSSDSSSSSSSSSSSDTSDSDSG

For the compound `Cc1sc2c(c1C)C(c1ccc(Cl)cc1)=N[C@@H](CC(=O)NCCOCCNC(=O)c1cc(SC(C)(C)C)c3ncc(C(=O)NCCc4nccs4)cc3c1)c1nnc(C)n1-2` [Example 11JQ17], the “Brd4 levels (FIG. 3)” value on Brd4 was “minimal depletion”. Moreover, the “fold change of abundance of 7882 proteins vs DMSO (FIG. 7)” value with HEK293 cells is on record as “does not show any BET depletion”. Further, the greatest degradation seen (Dmax) is at most 25% at Brd4 (S) (HEK293, Brd4 (S)); at most 25% at Brd4 (S) (HeLa); at most 25% on Brd4 (L) (HEK293, Brd4 (L)); at most 25% on Brd4 (L) (HeLa); at most 25% at Brd3 (HEK293, Brd3, 4 h); at most 25% at Brd3 (HeLa, Brd3, 4 h). Further, the maximal degradation (Dmax) on Brd2 (HEK293, Brd2, 4 h) was at most 25%; on Brd2 (HeLa, Brd2, 4 h), at most 25%.

The values are drawn from US11925690B2, “Bifunctional molecules for targeting Rpn11” (AMPHISTA THERAPEUTICS LTD, priority 2018, dated 2024).
